Measured values published in PubChem BioAssay (NCI).
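Following 48 hours of exposure in 96-well plates, responses at five concentrations were used to interpolate endpoints linearly. GI50 marks 50% less growth. TGI denotes the concentration required for complete inhibition of growth.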

How the values were obtained:
Test in all cases: NCI-60 cell line screen, 48 h; in the data active = GI50 below about 0.43 µM; inactive = the rest
NCI-H460 lung = tested on: NCI-H460 lung
NCI-H522 lung = tested on: NCI-H522 lung
OVCAR-5 ovarian = tested on: OVCAR-5 ovarian
SK-MEL-2 melanoma = tested on: SK-MEL-2 melanoma
MDA-MB-231 breast = tested on: MDA-MB-231 breast
SF-295 CNS = tested on: SF-295 CNS
SN12C renal = tested on: SN12C renal
CAKI-1 renal = tested on: CAKI-1 renal
SK-MEL-5 melanoma = tested on: SK-MEL-5 melanoma
UACC-257 melanoma = tested on: UACC-257 melanoma
PC-3 prostate = tested on: PC-3 prostate
OVCAR-8 ovarian = tested on: OVCAR-8 ovarian
SK-OV-3 ovarian = tested on: SK-OV-3 ovarian
ACHN renal = tested on: ACHN renal
T-47D breast = tested on: T-47D breast
K-562 leukemia = tested on: K-562 leukemia
SF-268 CNS = tested on: SF-268 CNS
LOX IMVI melanoma = tested on: LOX IMVI melanoma
IGROV1 ovarian = tested on: IGROV1 ovarian
RPMI-8226 leukemia = tested on: RPMI-8226 leukemia
MCF7 breast = tested on: MCF7 breast
OVCAR-3 ovarian = tested on: OVCAR-3 ovarian
SR leukemia = tested on: SR leukemia
EKVX NSCLC = tested on: EKVX NSCLC
U251 CNS = tested on: U251 CNS
HCT-116 colon = tested on: HCT-116 colon
MDA-MB-435 = tested on: MDA-MB-435
A549 NSCLC = tested on: A549 NSCLC
BT-549 breast = tested on: BT-549 breast
HL-60(TB) leukemia = tested on: HL-60(TB) leukemia
UACC-62 melanoma = tested on: UACC-62 melanoma
HS 578T breast = tested on: HS 578T breast
OVCAR-4 ovarian = tested on: OVCAR-4 ovarian
TK-10 renal = tested on: TK-10 renal
SNB-19 CNS = tested on: SNB-19 CNS
HOP-92 NSCLC = tested on: HOP-92 NSCLC
COLO 205 colon = tested on: COLO 205 colon
M14 melanoma = tested on: M14 melanoma
HCT-15 colon = tested on: HCT-15 colon
SF-539 CNS = tested on: SF-539 CNS
786-0 renal = tested on: 786-0 renal
RXF 393 renal = tested on: RXF 393 renal
NCI/ADR-RES ovarian = tested on: NCI/ADR-RES ovarian
HOP-62 NSCLC = tested on: HOP-62 NSCLC
SW-620 colon = tested on: SW-620 colon
DU-145 prostate = tested on: DU-145 prostate
SK-MEL-28 melanoma = tested on: SK-MEL-28 melanoma
NCI-H23 lung = tested on: NCI-H23 lung
HCC-2998 colon = tested on: HCC-2998 colon
KM12 colon = tested on: KM12 colon

N#Cc1nc2c(S(=O)(=O)c3ccccc3)c(N)n(Cc3ccc(Cl)cc3)c2nc1C#N
> 50 µM: TGI (NCI-H460 lung) | TGI (NCI-H522 lung) | TGI (OVCAR-5 ovarian) | TGI (SK-MEL-2 melanoma) | TGI (SF-295 CNS) | TGI (CAKI-1 renal) | TGI (SK-MEL-5 melanoma) | TGI (UACC-257 melanoma) | TGI (PC-3 prostate) | TGI (K-562 leukemia) | TGI (RPMI-8226 leukemia) | TGI (MCF7 breast) | TGI (OVCAR-3 ovarian) | TGI (SR leukemia) | TGI (EKVX NSCLC) | TGI (HCT-116 colon) | TGI (MDA-MB-435) | TGI (HL-60(TB) leukemia) | TGI (OVCAR-4 ovarian) | TGI (COLO 205 colon) | TGI (M14 melanoma) | TGI (HCT-15 colon) | TGI (SF-539 CNS) | TGI (HOP-62 NSCLC) | TGI (SW-620 colon) | TGI (DU-145 prostate) | TGI (SK-MEL-28 melanoma) | TGI (KM12 colon)
13.9 µM: TGI (RXF 393 renal)
41.7 µM: TGI (BT-549 breast)
17.6 µM: TGI (SN12C renal)
14.9 µM: TGI (MDA-MB-231 breast)
18.3 µM: TGI (U251 CNS)
18.1 µM: TGI (UACC-62 melanoma)
4.17 µM: TGI (LOX IMVI melanoma)
41 µM: TGI (SNB-19 CNS)
46.2 µM: TGI (HOP-92 NSCLC)
38.6 µM: TGI (NCI-H23 lung)
10.3 µM: TGI (NCI/ADR-RES ovarian)
47.6 µM: TGI (OVCAR-8 ovarian)
29.3 µM: TGI (SK-OV-3 ovarian)
26.5 µM: TGI (TK-10 renal)
inactive: GI50 (NCI-H460 lung) 10.9 µM | GI50 (NCI-H522 lung) 7.18 µM | GI50 (OVCAR-5 ovarian) 13 µM | GI50 (SK-MEL-2 melanoma) 32.6 µM | GI50 (MDA-MB-231 breast) 5.08 µM | GI50 (SF-295 CNS) 14.7 µM | GI50 (SN12C renal) 5.14 µM | GI50 (CAKI-1 renal) 26.7 µM | GI50 (SK-MEL-5 melanoma) 11.5 µM | GI50 (UACC-257 melanoma) 33.1 µM | GI50 (PC-3 prostate) 18.3 µM | GI50 (OVCAR-8 ovarian) 8.51 µM | GI50 (SK-OV-3 ovarian) 9.9 µM | GI50 (ACHN renal) 4.23 µM | GI50 (T-47D breast) 15.5 µM | GI50 (K-562 leukemia) > 50 µM | GI50 (SF-268 CNS) 9.14 µM | GI50 (LOX IMVI melanoma) 0.932 µM | GI50 (IGROV1 ovarian) 9.65 µM | GI50 (RPMI-8226 leukemia) 14.1 µM | GI50 (MCF7 breast) 7.38 µM | GI50 (OVCAR-3 ovarian) 12 µM | GI50 (SR leukemia) 9.72 µM | GI50 (EKVX NSCLC) 19.1 µM | GI50 (U251 CNS) 8.09 µM | GI50 (HCT-116 colon) 17.9 µM | GI50 (MDA-MB-435) 19.4 µM | GI50 (A549 NSCLC) 12.1 µM | GI50 (BT-549 breast) 10.8 µM | GI50 (HL-60(TB) leukemia) 47.3 µM | GI50 (UACC-62 melanoma) 7.51 µM | GI50 (HS 578T breast) 7.08 µM | GI50 (OVCAR-4 ovarian) 17.8 µM | GI50 (TK-10 renal) 12.2 µM | GI50 (SNB-19 CNS) 13.8 µM | GI50 (HOP-92 NSCLC) 12.3 µM | GI50 (COLO 205 colon) 17.8 µM | GI50 (M14 melanoma) 20.9 µM | GI50 (HCT-15 colon) 24.2 µM | GI50 (SF-539 CNS) 19.4 µM | GI50 (786-0 renal) 7.08 µM | GI50 (RXF 393 renal) 2.45 µM | GI50 (HOP-62 NSCLC) > 50 µM | GI50 (SW-620 colon) 17 µM | GI50 (DU-145 prostate) 15 µM | GI50 (SK-MEL-28 melanoma) 15.3 µM | GI50 (NCI-H23 lung) 6.46 µM | GI50 (HCC-2998 colon) 3.6 µM | GI50 (KM12 colon) 17.1 µM
42.3 µM: TGI (IGROV1 ovarian)
46.4 µM: TGI (T-47D breast)
37.6 µM: TGI (SF-268 CNS)
15.6 µM: TGI (786-0 renal)
23.4 µM: TGI (HS 578T breast)
active: GI50 (NCI/ADR-RES ovarian) 0.424 µM
10.8 µM: TGI (HCC-2998 colon)
41.3 µM: TGI (A549 NSCLC)
13 µM: TGI (ACHN renal)
